Legend:
[1] = Aqueous solubility in acidified water; assay type: physicochemical; conditions: aqueous buffer; in acidified water pH~4
[2] = In vivo pharmacokinetics in guinea pig; conditions: plasma
[3] = In vivo pharmacokinetics in mouse; conditions: plasma
[4] = test system: dengue virus (DENV serotype 2, strain New Guinea C); experiment: microbe, parasite or virus in culture; assay type: cell-based; conditions: DENV2, 120 h, virus yield reduction in Vero cells, 5 days
[5] = CellTiter-Glo Luminescent Cell Viability Assay (cytotoxicity); assay type: cell-based; conditions: African green monkey; Vero cells, 3-5 days in culture
Procedure: Cytotoxicity: To determine the cytotoxicity of the compounds in Vero cells, the CellTiter-Glo Luminescent Cell Viability Assay (Promega) was used. The compounds were tested at 6-8 concentrations in three replicates. Control conditions include vehicle-only treated cells to set 100% surviving cells, DMSO-killed cells as a cell death-inducing control, and no cells for 0% surviving cells. Cytotoxicity is measured after 3-5 days in culture by the change/decrease in relative light units (RLUs) in each sample which reflects the amount of ATP present (an indicator of metabolically active cells).
The 50% cellular cytotoxicity (CC50) value is calculated based on the RLUs of the compound-treated samples using vehicle-only control as 100% survival and no cells as 0% survival.

[6] = test system: Venezuelan Equine Encephalitis Virus (VEEV TC-83 stain); experiment: microbe, parasite or virus in culture; assay type: cell-based; conditions: Vero, 72 h, read-out: IC50 Venezuelan Equine Encephalitis TC-83 (VEEV)
[7] = Aqueous solubility in gastric and intestinal fluids (Cerep); assay type: physicochemical
Procedure: (§1) Assays for drug likeness (solubility, microsomal stability, plasma protein binding, A-B efflux, cytochrome CYP450 3A4, hERG binding, and Ames) were carried out by Cerep (Washington USA, and France) using standard protocols for in vitro testing. Assay protocols are provided online at http://www.cerep.fecerep/users/pages/catalog/profiles/catalog.asp and Cerep standard procedures and concentrations were used for all assays.

[8] = A-B Efflux (Caco2) (Cerep); assay type: in vitro ADME; conditions: human, Caco-2
Procedure: as §1

[9] = Human microsomal stability (Cerep); assay type: in vitro ADME; conditions: human microsomes; read-out: Human microsomal stability: t½
Procedure: as §1

Ames (Cerep) = conditions: with or without S9 activation
Procedure: as §1

[10] = In vivo pharmacokinetics and oral bioavailability in rat; set-up: species or system male Sprague-Dawley rats; conditions: male, Sprague-Dawley, plasma
Procedure: In vivo pharmacokinetic parameters and oral bioavailability for UV-0060 was determined by Eurofins (Cerep Panlabs, Taiwan). A pharmacokinetic study following oral and intravenous administrations was performed using male Sprague-Dawley rats. Test article was formulated in 2% DMSO/0.9% NaCl and administered orally (PO) at 10 mg/kg and intravenously (IV) at 5 mg/kg to groups of 3 rats. The dosing volume was 10 mL/kg for PO and 5 mL/kg for IV. Rats weighing 220±20 g were used. Blood samples were harvested at 3, 10, 30, 60, 120, 240, 360, 720 and 1440 minutes after intravenous injection and at 10, 30, 60, 120, 240, 360, 720 and 1440 minutes after oral administration. Blood was collected in tubes coated with lithium heparin, mixed gently, then kept on ice and centrifuged at 2,500×g for 15 minutes at 4° C., within 1 hour of collection. The plasma was harvested and kept frozen at −80° C. until further processing. A plasma calibration curve from 3-10000 ng/mL was generated using oxybutynin as internal standard. Aliquots of drug-free plasma were spiked with the test compound at the specified concentration levels. Plasma samples were processed using acetonitrile precipitation and analyzed by HPLC/MS/MS. The spiked plasma samples were processed together with the unknown plasma samples using the same procedure. HPLC/MS/MS analysis was carried out with electrospray ionization in positive ion mode with multiple reaction monitoring. HPLC column was Agilent Poroshell 120 EC-C18 column 2.7 μm (3.0×50 mm, 23° C.) with an acetonitrile/water/formic acid mobile phase gradient. Standards data were fitted linearly with a 1/x2 weighting.

[11] = Human plasma protein binding (Cerep); assay type: in vitro ADME
Procedure: as §1

CYP3A4 = biological target: T1, CYP3A4 (Homo sapiens, UniProt P08684); experiment: CYP450 3A4 inhibition (Cerep); assay type: in vitro ADME
T1 construct: Cerep
Procedure: as §1

[12] = Guinea pig, single dose, tested IV, SQ, IM routes
[13] = Mouse, single dose, tested IV, oral routes

T1 sequence (P08684 whole entry): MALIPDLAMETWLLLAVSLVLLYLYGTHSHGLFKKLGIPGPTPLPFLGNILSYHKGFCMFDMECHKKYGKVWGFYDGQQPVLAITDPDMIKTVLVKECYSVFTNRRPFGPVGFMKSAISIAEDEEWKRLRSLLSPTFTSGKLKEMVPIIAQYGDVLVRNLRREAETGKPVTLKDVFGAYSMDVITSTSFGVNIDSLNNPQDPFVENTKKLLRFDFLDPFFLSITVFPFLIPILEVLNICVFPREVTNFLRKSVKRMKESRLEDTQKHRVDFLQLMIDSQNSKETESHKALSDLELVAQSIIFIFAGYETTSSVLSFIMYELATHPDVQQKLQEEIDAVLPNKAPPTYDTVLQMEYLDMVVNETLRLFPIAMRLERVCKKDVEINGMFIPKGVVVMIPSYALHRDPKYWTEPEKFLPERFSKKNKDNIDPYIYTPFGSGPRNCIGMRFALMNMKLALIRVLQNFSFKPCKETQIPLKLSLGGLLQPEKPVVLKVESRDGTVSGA

## [N-]=[N+]=Nc1ccc(NCCCCCCN2C[C@H](O)[C@@H](O)[C@H](O)[C@H]2CO)c([N+](=O)[O-])c1 [UV-5]
[1]
  solubility: > 112 mg/mL
[2]; guinea pig
  clearance: 233 mL/min/kg
[2]; guinea pig, Guinea pig, single dose, tested IV, SQ, IM routes, read-out: T½
  half-life: 1.62 to 3.99 h
[2]; guinea pig, guinea pig, read-out: Plasma t½
  half-life: 1.62 h
[2]; guinea pig, read-out: Vss
  Vd: 16.9 L/kg
[2]; other: IM, Guinea pig, IM, SC
  bioavailability: 187 to 198%
[2]; [12]
  Cmax: 2320 to 3790 ng/mL
  Tmax: 0.75 to 1.13 h
[3]; mouse, Mouse, single dose, tested IV, oral routes, read-out: T1/2
  half-life: 4.09 to 8.96 h
[3]; mouse, mice, read-out: Plasma t½
  half-life: ~4 h
[3]; mouse, mice, oral
  bioavailability: 80%
[3]; [13]
  Cmax: 14400 ng/mL
  Tmax: 1 h

## OC[C@@H]1[C@@H](O)[C@H](O)[C@@H](O)CN1CCCCCCCCc1ccco1 [UV-30, (2R,3R,4R,5S)-1-(8-(furan-2-yl)octyl)-2-(hydroxymethyl)piperidine-3,4,5-triol]
[4]
  IC50: 7 µM
[5]
  CC50: ≥ 125 µM
[6]
  IC50: 14 µM

## O=[N+]([O-])c1cc(-n2nccn2)ccc1NCCCCCCN1C[C@H](O)[C@@H](O)[C@H](O)[C@H]1CO [UV-0060]
[7]; gastric fluid, simulated gastric fluid, read-out: Aqueous solubility in gastric fluid
  solubility: > 200 µM
[7]; intestinal fluid, fassgf or other biorelevant, read-out: Aqueous solubility in intestinal fluid
  solubility: > 200 µM
[4]
  IC50: 5 µM
[8]
  Papp A→B: ~0.3 ×10⁻⁶ cm/s
[9]
  half-life: > 1 h
[5]
  CC50: 245 µM
Ames (Cerep)
  Ames: Ames: negative with or without S9
[10]; PO 10 mg/kg vs IV 5 mg/kg
  bioavailability: 6%
[10]; single dose, IV 5 mg/kg
  clearance: 72.9 mL/min/kg
[10]; single dose, IV 5 mg/kg, read-out: T1/2 (IV)
  half-life: 2.8 h
[10]; single dose, PO 10 mg/kg
  Tmax: 2.2 h
[10]; single dose, PO 10 mg/kg, read-out: T1/2 (PO)
  half-life: 2.2 h
[6]
  IC50: 94.1 µM
[11]
  fraction unbound at 10 microM: 0.12
CYP3A4
  inhibition at 10 µM: 0.2%

From patent US10428022B2, “Iminosugars useful for the treatment of viral diseases” (Emergent Virology, LLC, priority 2014, dated 2019)
